Assay [1] has as its target purified human Factor XIa (Homo sapiens (Human), UniProt P03951). In words: biochemical. Type of assay: biochemical. As to conditions: read-out: Factor XIa Ki.
Assay [2] addresses purified human plasma kallikrein (Homo sapiens (Human), UniProt P03952). In words: biochemical. Type of assay: biochemical. The conditions noted are these: read-out: Plasma Kallikrein Ki.

Counter-ions that a name gives are not always drawn.

Sequence of purified human plasma kallikrein (P03952 whole entry, looked up): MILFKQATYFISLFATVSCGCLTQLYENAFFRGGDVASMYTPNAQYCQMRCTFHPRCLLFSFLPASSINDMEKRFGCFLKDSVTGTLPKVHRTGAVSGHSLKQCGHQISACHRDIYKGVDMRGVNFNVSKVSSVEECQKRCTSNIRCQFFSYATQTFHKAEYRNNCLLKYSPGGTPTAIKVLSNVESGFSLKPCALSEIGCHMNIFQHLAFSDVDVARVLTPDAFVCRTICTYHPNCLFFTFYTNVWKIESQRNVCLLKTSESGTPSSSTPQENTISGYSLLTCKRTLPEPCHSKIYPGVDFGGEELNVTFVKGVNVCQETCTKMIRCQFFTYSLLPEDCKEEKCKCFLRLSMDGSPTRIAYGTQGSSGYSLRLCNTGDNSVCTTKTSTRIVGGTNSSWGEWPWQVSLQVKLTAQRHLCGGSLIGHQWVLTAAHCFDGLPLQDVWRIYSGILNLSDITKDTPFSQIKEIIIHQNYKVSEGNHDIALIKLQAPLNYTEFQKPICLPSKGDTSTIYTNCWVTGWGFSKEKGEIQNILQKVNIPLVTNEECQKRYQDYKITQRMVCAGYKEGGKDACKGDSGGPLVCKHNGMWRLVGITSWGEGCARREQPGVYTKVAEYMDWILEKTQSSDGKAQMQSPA
Sequence of purified human plasma kallikrein (P03952 whole entry partner, looked up): as the sequence (P03952 whole entry, looked up) above
Sequence of purified human Factor XIa (P03951 whole entry, looked up): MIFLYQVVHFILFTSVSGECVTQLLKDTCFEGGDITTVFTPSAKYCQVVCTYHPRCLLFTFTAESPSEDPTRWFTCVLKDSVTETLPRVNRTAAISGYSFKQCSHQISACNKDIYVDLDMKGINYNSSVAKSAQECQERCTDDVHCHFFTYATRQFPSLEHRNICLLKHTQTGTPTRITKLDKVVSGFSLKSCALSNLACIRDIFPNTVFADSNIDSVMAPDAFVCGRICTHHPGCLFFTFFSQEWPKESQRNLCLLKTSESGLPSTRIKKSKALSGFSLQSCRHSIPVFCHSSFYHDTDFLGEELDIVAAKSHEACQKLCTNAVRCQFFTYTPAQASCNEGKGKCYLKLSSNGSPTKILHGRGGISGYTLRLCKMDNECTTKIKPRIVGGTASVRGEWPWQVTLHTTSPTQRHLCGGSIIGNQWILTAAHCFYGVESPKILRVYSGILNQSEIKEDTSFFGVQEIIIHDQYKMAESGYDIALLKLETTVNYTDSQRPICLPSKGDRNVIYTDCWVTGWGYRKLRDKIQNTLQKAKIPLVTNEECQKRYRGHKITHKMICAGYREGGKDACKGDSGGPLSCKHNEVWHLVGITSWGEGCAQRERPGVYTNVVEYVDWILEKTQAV
Sequence of purified human Factor XIa (P03951 whole entry partner, looked up): as the sequence (P03951 whole entry, looked up) above

For the molecule `C[C@@H]1CCC[C@H](N2CCC(c3c(F)ccc(Cl)c3F)=CC2=O)c2cc(ccn2)-c2ccc(NC3O[C@H](CO)[C@@H](O)[C@H](O)[C@@H]3O)cc2NC1=O` (stereo partly drawn) [Example 125, (10R,14S)-14-[4-(3-chloro-2,6-difluorophenyl)-6-oxo-1,2,3,6-tetrahydropyridin-1-yl]-10-methyl-5-{[(3S,4S,5S,6R)-3,4,5-trihydroxy-6-(hydroxymethyl)oxan-2-yl]amino}-8,16-diazatricyclo[13.3.1.0^2,7]nonadeca-1(19),2,4,6,15,17-hexaen-9-one], the inhibition constant (Ki) (in general, the dissociation constant of the complex between target and ligand, obtained from inhibition or displacement) in assay [1] amounted to 15.2 nM; in assay [2] it was 11.6 nM.
In the same order, the values of `C[C@@H]1CCC[C@H](N2CCC(c3c(F)ccc(Cl)c3F)=CC2=O)c2cc(ccn2)-c2ccc(NC3O[C@H](CO)[C@@H](O)[C@H](O)[C@H]3O)cc2NC1=O` (stereo partly drawn) [Example 126, (10R,14S)-14-[4-(3-chloro-2,6-difluorophenyl)-6-oxo-1,2,3,6-tetrahydropyridin-1-yl]-10-methyl-5-{[(3R,4S,5S,6R)-3,4,5-trihydroxy-6-(hydroxymethyl)oxan-2-yl]amino}-8,16-diazatricyclo[13.3.1.0^2,7]nonadeca-1(19),2,4,6,15,17-hexaen-9-one] are 16.1 nM and 37.6 nM.
Turning to `C[C@@H]1CCC[C@H](N2CCC(c3c(F)ccc(Cl)c3F)=CC2=O)c2cc(ccn2)-c2ccc(NC3O[C@H](C(=O)O)[C@@H](O)[C@H](O)[C@H]3O)cc2NC1=O` (stereo partly drawn) [Example 128, (2S,3S,4S,5R)-6-{[(10R,14S)-14-[4-(3-chloro-2,6-difluorophenyl)-6-oxo-1,2,3,6-tetrahydropyridin-1-yl]-10-methyl-9-oxo-8,16-diazatricyclo[13.3.1.0^2,7]nonadeca-1(19),2,4,6,15,17-hexaen-5-yl]amino}-3,4,5-trihydroxyoxane-2-carboxylic acid], the Ki in assay [1] worked out at 10.3 nM; in assay [2], 25.5 nM.
In the same order, the values of `CO[C@H]1[C@H](O)[C@@H](CO)OC(Nc2ccc3c(c2)NC(=O)[C@H](C)CCC[C@H](N2CCC(c4c(F)ccc(Cl)c4F)=CC2=O)c2cc-3ccn2)[C@@H]1O` (stereo partly drawn) [Example 129, (10R,14S)-14-[4-(3-chloro-2,6-difluorophenyl)-6-oxo-1,2,3,6-tetrahydropyridin-1-yl]-5-{[(3R,4S,5R,6R)-3,5-dihydroxy-6-(hydroxymethyl)-4-methoxyoxan-2-yl]amino}-10-methyl-8,16-diazatricyclo[13.3.1.0^2,7]nonadeca-1(19),2,4,6,15,17-hexaen-9-one] are 8.29 nM and 21.7 nM.
In the same order, the values of `CC(=O)N[C@@H]1C(Nc2ccc3c(c2)NC(=O)[C@H](C)CCC[C@H](N2CCC(c4c(F)ccc(Cl)c4F)=CC2=O)c2cc-3ccn2)O[C@H](CO)[C@@H](O)[C@@H]1O` (stereo partly drawn) [Example 130, N-[(3S,4R,5S,6R)-2-{[(10R,14S)-14-[4-(3-chloro-2,6-difluorophenyl)-6-oxo-1,2,3,6-tetrahydropyridin-1-yl]-10-methyl-9-oxo-8,16-diazatricyclo[13.3.1.0^2,7]nonadeca-1(19),2,4,6,15,17-hexaen-5-yl]amino}-4,5-dihydroxy-6-(hydroxymethyl)oxan-3-yl]acetamide] are 8.51 nM and 26.5 nM.
For `C[C@@H]1CCC[C@H](N2CCC(c3c(F)ccc(Cl)c3F)=CC2=O)c2cc(ccn2)-c2ccc(NC3O[C@@H](CO)[C@H](O)[C@@H](O)[C@@H]3O)cc2NC1=O` (stereo partly drawn) [Example 131], in that order: 7.22 nM and 20.8 nM.
`C[C@@H]1CCC[C@H](N2CCC(c3c(F)ccc(Cl)c3F)=CC2=O)c2cc(ccn2)-c2ccc(NC3O[C@H](CO)[C@@H](O[C@H]4O[C@H](CO)[C@@H](O[C@H]5O[C@H](CO)[C@@H](O)[C@H](O)[C@H]5O)[C@H](O)[C@H]4O)[C@H](O)[C@H]3O)cc2NC1=O` (stereo partly drawn) [Example 133, (10R,14S)-14-[4-(3-chloro-2,6-difluorophenyl)-6-oxo-1,2,3,6-tetrahydropyridin-1-yl]-5-{[(3R,4R,5S,6R)-5-{[(2R,3R,4R,5S,6R)-3,4-dihydroxy-6-(hydroxymethyl)-5-{[(2R,3R,4S,5S,6R)-3,4,5-trihydroxy-6-(hydroxymethyl)oxan-2-yl]oxy}oxan-2-yl]oxy}-3,4-dihydroxy-6-(hydroxymethyl)oxan-2-yl]amino}-10-methyl-8,16-diazatricyclo[13.3.1.0^2,7]nonadeca-1(19),2,4,6,15,17-hexaen-9-one]: the inhibition constant (Ki) turned out to be 4.77 nM in assay [1] and 12.6 nM in assay [2].
As for `COC(=O)Nc1ccc2c(c1)NC(=O)[C@H](C)CCC[C@H](N1CCC(c3c(F)ccc(Cl)c3F)=CC1=O)c1nc-2c(Cl)[nH]1` [Example 135, Methyl N-[(10R,14S)-17-chloro-14-[4-(3-chloro-2,6-difluorophenyl)-6-oxo-1,2,3,6-tetrahydropyridin-1-yl]-10-methyl-9-oxo-8,16,18-triazatricyclo[13.2.1.0^2,7]octadeca-1(17),2,4,6,15(18)-pentaen-5-yl]carbamate, TFA salt], the Ki in assay [1] came out at 0.05 nM; in assay [2], 0.56 nM.
Regarding `COC(=O)Nc1ccc2c(c1)NC(=O)[C@H](C)C(=O)CC[C@H](N1CCC(c3c(F)ccc(Cl)c3F)=CC1=O)c1cc-2ccn1` [Example 136, Methyl N-[(10R,14S)-14-[4-(3-chloro-2,6-difluorophenyl)-6-oxo-1,2,3,6-tetrahydropyridin-1-yl]-10-methyl-9,11-dioxo-8,16-diazatricyclo[13.3.1.0^2,7]nonadeca-1(19),2(7),3,5,15,17-hexaen-5-yl]carbamate], the Ki was determined as 45.3 nM in assay [1] and 118 nM in assay [2].
`C[C@@H]1CCC[C@H](N2CCC(c3c(F)ccc(Cl)c3F)=CC2=O)c2cc(ccn2)-c2cc(Br)ccc2NC1=O` [Example 137, (10R,14S)-4-bromo-14-[4-(3-chloro-2,6-difluorophenyl)-6-oxo-1,2,3,6-tetrahydropyridin-1-yl]-10-methyl-8,16-diazatricyclo[13.3.1.0^2,7]nonadeca-1(19),2(7),3,5,15,17-hexaen-9-one]: the results for the Ki in assay [1] and in assay [2] were 69.6 nM and 91.3 nM, respectively.
Regarding `C[C@@H]1CCC[C@H](N2CCC(c3c(F)ccc(Cl)c3F)=CC2=O)c2cc(ccn2)-c2cc(C#N)ccc2NC1=O` [Example 138, (10R,14S)-14-[4-(3-chloro-2,6-difluorophenyl)-6-oxo-1,2,3,6-tetrahydropyridin-1-yl]-10-methyl-9-oxo-8,16-diazatricyclo[13.3.1.0^2,7]nonadeca-1(19),2(7),3,5,15,17-hexaene-4-carbonitrile], the Ki came out at 36.2 nM in assay [1] and 31.7 nM in assay [2].
In the same order, the values of `C[C@@H]1CCC[C@H](N2CCC(c3c(F)ccc(C#N)c3F)=CC2=O)c2cc(ccn2)-c2cc(C#N)ccc2NC1=O` [Example 139, (10R,14S)-14-[4-(3-cyano-2,6-difluorophenyl)-6-oxo-1,2,3,6-tetrahydropyridin-1-yl]-10-methyl-9-oxo-8,16-diazatricyclo[13.3.1.0^2,7]nonadeca-1(19),2(7),3,5,15,17-hexaene-4-carbonitrile] are > 408 nM and 6050 nM.
For `Cc1ccc2c(c1)-c1ccnc(c1)[C@@H](N1CCC(c3c(F)ccc(Cl)c3F)=CC1=O)CCC[C@@H](C)C(=O)N2` [Example 141, (10R,14S)-14-[4-(3-chloro-2,6-difluorophenyl)-6-oxo-1,2,3,6-tetrahydropyridin-1-yl]-4,10-dimethyl-8,16-diazatricyclo[13.3.1.0^2,7]nonadeca-1(19),2(7),3,5,15,17-hexaen-9-one], in that order: 98.9 nM and 123 nM.
As to `C[C@@H]1CCC[C@H](N2CCC(c3c(F)ccc(Cl)c3F)=CC2=O)c2cc(ccn2)-c2cc(F)c(N)cc2NC1=O` [Example 143, (10R,14S)-5-amino-14-[4-(3-chloro-2,6-difluorophenyl)-6-oxo-1,2,3,6-tetrahydropyridin-1-yl]-4-fluoro-10-methyl-8,16-diazatricyclo[13.3.1.0^2,7]nonadeca-1(19),2(7),3,5,15,17-hexaen-9-one], the Ki in assay [1] turned out to be 1.31 nM; in assay [2] it was 3.38 nM.
`COC(=O)c1ccc2c(c1)-c1ccnc(c1)[C@@H](N1CCC(c3c(F)ccc(Cl)c3F)=CC1=O)CCC[C@@H](C)C(=O)N2` [Example 144, Methyl (10R,14S)-14-[4-(3-chloro-2,6-difluorophenyl)-6-oxo-1,2,3,6-tetrahydropyridin-1-yl]-10-methyl-9-oxo-8,16-diazatricyclo[13.3.1.0^2,7]nonadeca-1(19),2(7),3,5,15,17-hexaene-4-carboxylate]: the Ki in assay [1] was determined as 186 nM; in assay [2] it was 108 nM.
In the same order, the values of `C[C@@H]1CCC[C@H](N2CCC(c3c(Br)ccc(Cl)c3F)=CC2=O)c2cc(ccn2)-c2cc(F)ccc2NC1=O` [Example 147, (10R,14S)-14-[4-(6-bromo-3-chloro-2-fluorophenyl)-6-oxo-1,2,3,6-tetrahydropyridin-1-yl]-4-fluoro-10-methyl-8,16-diazatricyclo[13.3.1.0^2,7]nonadeca-1(19),2(7),3,5,15,17-hexaen-9-one] are 3.59 nM and 7.51 nM.
Turning to `C[C@@H]1CCC[C@H](N2CCC(c3c(F)ccc(Cl)c3F)=CC2=O)c2cc(ccn2)-c2cc(CO)ccc2NC1=O` [Example 148, (10R,14S)-14-[4-(3-chloro-2,6-difluorophenyl)-6-oxo-1,2,3,6-tetrahydropyridin-1-yl]-4-(hydroxymethyl)-10-methyl-8,16-diazatricyclo[13.3.1.0^2,7]nonadeca-1(19),2(7),3,5,15,17-hexaen-9-one], the inhibition constant (Ki) in assay [1] worked out at 90.1 nM; in assay [2] it was 118 nM.
For `C[C@@H]1CCC[C@H](N2CCC(c3c(F)ccc(Cl)c3F)=CC2=O)c2cc(ccn2)-c2ccc(CO)cc2NC1=O` [Example 149, (10R,14S)-14-[4-(3-chloro-2,6-difluorophenyl)-6-oxo-1,2,3,6-tetrahydropyridin-1-yl]-5-(hydroxymethyl)-10-methyl-8,16-diazatricyclo[13.3.1.0^2,7]nonadeca-1(19),2(7),3,5,15,17-hexaen-9-one], in that order: 17.5 nM and 22.6 nM.
